Measurements as given in ChEMBL document CHEMBL1157430, “Design, synthesis, and structure-activity relationship study of a novel class of ORL1 receptor antagonists based on N-biarylmethyl spiropiperidine” (Bioorg Med Chem Lett, 2008).

Assays:
[1] = Displacement of [125I]Tyr14-NC/OFQ from human ORL1 expressed in CHO cells; type: cell-based; conditions: read-out: I50
CHO = assay: Displacement of [125I]Tyr14-NC/OFQ from human ORL1 expressed in CHO cells at 1 uM; type: cell-based
[2] = Lipophilicity Log D at pH 7.4 by shake flask method; type: physicochemical; conditions: buffer
[3] = Metabolic stability in rat liver microsomes at 1 uM after 30 mins; type: ADME, Microsome; conditions: read-out: Stability
Mu-type opioid receptor = Mu-type opioid receptor (Homo sapiens, UniProt P35372); assay: Displacement of [3H]diprenorphin from human cloned mu opioid receptor expressed in CHO cells; type: cell-based
Mu-type opioid receptor, sequence (P35372 whole entry): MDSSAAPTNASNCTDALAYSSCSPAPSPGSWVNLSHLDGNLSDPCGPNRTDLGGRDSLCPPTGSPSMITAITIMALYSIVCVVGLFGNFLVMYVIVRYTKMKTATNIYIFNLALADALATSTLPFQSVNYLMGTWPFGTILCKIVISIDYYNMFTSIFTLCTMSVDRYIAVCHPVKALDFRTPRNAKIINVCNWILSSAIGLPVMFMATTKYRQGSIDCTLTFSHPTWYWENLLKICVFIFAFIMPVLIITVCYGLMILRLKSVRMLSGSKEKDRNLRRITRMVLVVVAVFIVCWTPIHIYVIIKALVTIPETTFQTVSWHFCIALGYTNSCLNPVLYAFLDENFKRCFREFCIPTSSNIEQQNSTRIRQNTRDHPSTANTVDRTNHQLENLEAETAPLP

[4] = Metabolic stability in human liver microsomes at 1 uM after 30 mins; type: ADME, Microsome; conditions: read-out: Stability
[5] = target: Kappa-type opioid receptor (Homo sapiens, UniProt P41145); assay: Displacement of [3H]U69593 from human cloned kappa opioid receptor expressed in CHO cells; type: cell-based
Kappa-type opioid receptor, sequence (P41145 whole entry): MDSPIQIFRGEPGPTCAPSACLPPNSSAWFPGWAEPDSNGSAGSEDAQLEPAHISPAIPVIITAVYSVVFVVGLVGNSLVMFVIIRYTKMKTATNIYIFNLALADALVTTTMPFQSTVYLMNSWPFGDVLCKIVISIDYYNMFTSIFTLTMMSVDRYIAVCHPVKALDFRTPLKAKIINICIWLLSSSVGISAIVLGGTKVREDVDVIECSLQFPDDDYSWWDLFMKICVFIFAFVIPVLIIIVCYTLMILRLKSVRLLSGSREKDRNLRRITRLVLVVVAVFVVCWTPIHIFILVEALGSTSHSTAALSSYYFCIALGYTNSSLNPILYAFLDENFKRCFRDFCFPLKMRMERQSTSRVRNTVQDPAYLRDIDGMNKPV

[6] = Antagonist activity at human ORL1 expressed in CHO cells by GTPgammaS binding assay; type: cell-based; conditions: read-out: I50
[7] = target: Voltage-gated inwardly rectifying potassium channel KCNH2 (Homo sapiens, UniProt Q12809); assay: Displacement of [35S]MK499 from human ERG in HEK293 cell membrane
Voltage-gated inwardly rectifying potassium channel KCNH2, sequence (Q12809 whole entry): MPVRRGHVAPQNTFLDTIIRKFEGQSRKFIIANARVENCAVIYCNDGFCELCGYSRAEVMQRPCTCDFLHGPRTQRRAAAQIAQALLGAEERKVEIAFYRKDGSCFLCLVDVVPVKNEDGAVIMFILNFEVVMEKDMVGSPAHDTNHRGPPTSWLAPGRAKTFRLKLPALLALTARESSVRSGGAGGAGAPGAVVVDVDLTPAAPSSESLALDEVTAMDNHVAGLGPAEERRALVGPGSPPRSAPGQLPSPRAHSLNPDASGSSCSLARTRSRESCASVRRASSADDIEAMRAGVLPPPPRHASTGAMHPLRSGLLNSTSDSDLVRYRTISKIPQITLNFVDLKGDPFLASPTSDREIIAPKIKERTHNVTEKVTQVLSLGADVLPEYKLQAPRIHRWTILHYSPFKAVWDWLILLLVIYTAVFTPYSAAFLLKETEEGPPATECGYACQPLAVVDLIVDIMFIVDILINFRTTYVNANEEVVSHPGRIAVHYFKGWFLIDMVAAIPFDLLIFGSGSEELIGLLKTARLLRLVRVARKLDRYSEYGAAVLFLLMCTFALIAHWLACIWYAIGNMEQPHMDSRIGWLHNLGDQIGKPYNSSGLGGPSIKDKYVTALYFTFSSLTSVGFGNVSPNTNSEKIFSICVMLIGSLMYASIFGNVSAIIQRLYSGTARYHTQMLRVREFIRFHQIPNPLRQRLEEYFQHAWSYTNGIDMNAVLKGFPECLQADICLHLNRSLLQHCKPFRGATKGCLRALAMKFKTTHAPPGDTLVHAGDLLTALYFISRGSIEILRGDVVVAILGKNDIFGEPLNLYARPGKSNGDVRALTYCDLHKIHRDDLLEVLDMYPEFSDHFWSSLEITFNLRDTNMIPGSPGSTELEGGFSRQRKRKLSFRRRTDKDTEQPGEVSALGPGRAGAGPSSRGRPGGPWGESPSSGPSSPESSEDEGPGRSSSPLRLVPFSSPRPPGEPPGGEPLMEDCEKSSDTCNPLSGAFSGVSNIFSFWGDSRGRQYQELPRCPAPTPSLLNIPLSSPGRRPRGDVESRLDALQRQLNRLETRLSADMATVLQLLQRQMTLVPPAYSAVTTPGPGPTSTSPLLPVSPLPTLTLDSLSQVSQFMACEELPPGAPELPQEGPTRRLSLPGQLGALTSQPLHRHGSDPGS

| Compound | IC50 [1] [nM] | logD [2] | also measured |
| --- | --- | --- | --- |
| Cc1nn(-c2ncccc2Cl)cc1CN1CCC2(CC1)OCc1ccccc12 | 4.5 | 3.1 | remaining at 0.5 h, 1 µM [3]: 6%; IC50 (Mu-type opioid receptor): 7400 nM; remaining at 0.5 h, 1 µM [4]: 60%; IC50 [5]: > 10000 nM; IC50 [6]: 2.7 nM |
| c1ccc(-n2nccc2CN2CCC3(CC2)OCc2ccccc23)cc1 | > 1000 |  | inhibition (CHO): -2% |
| Cc1nn(-c2c(Cl)cccc2NS(C)(=O)=O)cc1CN1CCC2(CC1)OCc1ccccc12 | 1.9 | 2.1 | remaining at 0.5 h, 1 µM [3]: 69%; IC50 (Mu-type opioid receptor): > 10000 nM; remaining at 0.5 h, 1 µM [4]: 54%; IC50 [7]: 17000 nM; IC50 [5]: > 10000 nM; IC50 [6]: 0.53 nM |
| c1ccc(-c2cccc(CN3CCC4(CC3)OCc3ccccc34)c2)nc1 | 310 |  |  |
| c1ccc(Cc2nn(-c3ccccc3)cc2CN2CCC3(CC2)OCc2ccccc23)cc1 | 30 |  |  |
| Cc1nn(-c2ccncc2)cc1CN1CCC2(CC1)OCc1ccccc12 | 820 | 3.7 |  |
| Cc1nn(-c2ccc(Cl)cn2)cc1CN1CCC2(CC1)OCc1ccccc12 | 280 | 3.5 |  |
| Cc1c(CN2CCC3(CC2)OCc2ccccc23)cnn1-c1ccccc1 | 100 |  |  |
| c1cncc(-c2ccc(CN3CCC4(CC3)OCc3ccccc34)cc2)c1 | > 1000 |  | inhibition (CHO): 15% |
| c1ccc(-n2cc(CN3CCC4(CC3)OCc3ccccc34)nn2)cc1 | 190 |  |  |
| Cc1nn(-c2cccc(Cl)n2)cc1CN1CCC2(CC1)OCc1ccccc12 | 43 | 3.9 |  |
| c1cncc(-c2ccccc2CN2CCC3(CC2)OCc2ccccc23)c1 | > 1000 |  | inhibition (CHO): 31% |
| Cc1nn(-c2ncccn2)cc1CN1CCC2(CC1)OCc1ccccc12 | 93 | 2.9 |  |
| Cc1ccnc(-n2cc(CN3CCC4(CC3)OCc3ccccc34)c(C)n2)c1 | 19 | 3.2 | IC50 [6]: 45 nM |
| Cc1nn(-c2ccccc2Cl)cc1CN1CCC2(CC1)OCc1ccccc12 | 0.65 | 3.7 | IC50 [6]: 0.87 nM |

More lines, main results first:

| IC50 [1] [nM] | logD [2] | Compound | also measured |
| --- | --- | --- | --- |
| > 1000 |  | c1ccc(-c2csc(CN3CCC4(CC3)OCc3ccccc34)n2)cc1 | inhibition (CHO): -7% |
| 200 | 3.5 | Cc1nn(-c2cnccn2)cc1CN1CCC2(CC1)OCc1ccccc12 |  |
| > 1000 |  | Cc1nn(-c2ccccc2)nc1CN1CCC2(CC1)OCc1ccccc12 | inhibition (CHO): 36% |
| 21 |  | CC(C)c1nn(-c2ccccc2)cc1CN1CCC2(CC1)OCc1ccccc12 |  |
| 11 | 2.1 | Cc1nn(-c2ncccc2NS(C)(=O)=O)cc1CN1CCC2(CC1)OCc1ccccc12 |  |
| 40 |  | c1ccc(-n2cc(CN3CCC4(CC3)OCc3ccccc34)cn2)cc1 |  |
| 6.9 | > 4 | Cc1nn(-c2ccccc2)cc1CN1CCC2(CC1)OCc1ccccc12 | remaining at 0.5 h, 1 µM [3]: 4%; IC50 (Mu-type opioid receptor): 3200 nM; remaining at 0.5 h, 1 µM [4]: 28%; IC50 [5]: 9700 nM; IC50 [6]: 1.6 nM |
| 9.4 |  | CCc1nn(-c2ccccc2)cc1CN1CCC2(CC1)OCc1ccccc12 | IC50 [6]: 8.4 nM |
| 13 |  | Cc1nn(-c2ccccc2)c(C)c1CN1CCC2(CC1)OCc1ccccc12 |  |
| 27 | 3.2 | CC(=O)Nc1cccnc1-n1cc(CN2CCC3(CC2)OCc2ccccc23)c(C)n1 |  |
| 22 | 1.4 | CNC(=O)c1cccnc1-n1cc(CN2CCC3(CC2)OCc2ccccc23)c(C)n1 |  |
| > 1000 |  | c1cncc(-c2cccc(CN3CCC4(CC3)OCc3ccccc34)c2)c1 | inhibition (CHO): 45% |
| 59 |  | CC(C)(C)c1nn(-c2ccccc2)cc1CN1CCC2(CC1)OCc1ccccc12 |  |
| 130 | 3.2 | Cc1nn(-c2cccnc2)cc1CN1CCC2(CC1)OCc1ccccc12 |  |
| > 1000 |  | c1ccc(-c2nc(CN3CCC4(CC3)OCc3ccccc34)cs2)cc1 | inhibition (CHO): 3% |
| > 1000 |  | c1cc(CN2CCC3(CC2)OCc2ccccc23)cc(-c2ccncc2)c1 | inhibition (CHO): 18% |
| 2.6 | 2.7 | Cc1cccnc1-n1cc(CN2CCC3(CC2)OCc2ccccc23)c(C)n1 | remaining at 0.5 h, 1 µM [3]: 1%; IC50 (Mu-type opioid receptor): 4400 nM; remaining at 0.5 h, 1 µM [4]: 64%; IC50 [7]: 13000 nM; IC50 [5]: > 10000 nM; IC50 [6]: 2.6 nM |
| 12 | 3.1 | Cc1nn(-c2ccccn2)cc1CN1CCC2(CC1)OCc1ccccc12 | IC50 [6]: 16 nM |
